Results as given in patent publication US20230242530A1, “8-(AZETIDIN-1-YL)-[1,2,4]TRIAZOLO[1,5-A]PYRIDINYL COMPOUNDS, COMPOSITIONS AND METHODS OF USE THEREOF” (Genentech, Inc., priority 2016, published 2023).

What was measured:
[1] = molecular target: T1, isolated recombinant JAK2 kinase domain (Homo sapiens, UniProt O60674); assay: JAK enzyme assay, JAK2 kinase domain (Caliper LabChip); type: biochemical; conditions: 0.2 nM JAK2, ATP 25 μM, Morrison tight binding model
T1 construct: isolated recombinant JAK1 and JAK2 kinase domain
T1 sequence (O60674 849-1124 limits assumed): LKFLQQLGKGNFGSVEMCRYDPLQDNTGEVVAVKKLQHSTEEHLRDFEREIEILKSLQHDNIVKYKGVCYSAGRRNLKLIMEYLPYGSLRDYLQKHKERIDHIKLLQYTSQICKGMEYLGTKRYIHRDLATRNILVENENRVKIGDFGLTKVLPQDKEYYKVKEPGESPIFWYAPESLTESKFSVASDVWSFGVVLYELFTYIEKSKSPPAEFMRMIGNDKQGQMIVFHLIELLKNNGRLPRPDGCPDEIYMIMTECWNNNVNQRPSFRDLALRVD
How it was run: (§1)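 Recombinant kinase domains phosphorylated a 5-carboxyfluorescein-labelled JAK3-derived peptide for 30 min at 22 °C, and the reaction was stopped with EDTA (50 mM final). Product fraction was measured by Caliper LabChip mobility shift. Ki came from Morrison tight-binding fits corrected for ATP competition (Ki=Ki,app/(1+[ATP]/Km,app)).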

[2] = test system: JAK1-dependent STAT6 phosphorylation downstream of IL-13 stimulation in BEAS-2B cells; assay: JAK1 pathway assay in cell lines: IL-13 p-STAT6 BEAS-2B; type: cell-based; conditions: BEAS-2B human bronchial epithelial cells, 1 hr compound, IL-13 15 min, MSD readout
How it was run: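 BEAS-2B cells plated a day ahead in complete growth medium; compounds added 1 hr at 37 °C (0.2% DMSO final), then IL-13 at lot-specific EC90 for 15 min at 37 °C. Phospho-STAT6 in lysates measured by MSD; EC50 is 50% inhibition relative to DMSO control.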

[3] = molecular target: T2, isolated recombinant JAK1 kinase domain (Homo sapiens, UniProt P23458); assay: JAK enzyme assay, JAK1 kinase domain (Caliper LabChip); type: biochemical; conditions: 1.5 nM JAK1, ATP 25 μM, Morrison tight binding model
T2 construct: isolated recombinant JAK1 and JAK2 kinase domain
T2 sequence (P23458 875-1153 limits assumed): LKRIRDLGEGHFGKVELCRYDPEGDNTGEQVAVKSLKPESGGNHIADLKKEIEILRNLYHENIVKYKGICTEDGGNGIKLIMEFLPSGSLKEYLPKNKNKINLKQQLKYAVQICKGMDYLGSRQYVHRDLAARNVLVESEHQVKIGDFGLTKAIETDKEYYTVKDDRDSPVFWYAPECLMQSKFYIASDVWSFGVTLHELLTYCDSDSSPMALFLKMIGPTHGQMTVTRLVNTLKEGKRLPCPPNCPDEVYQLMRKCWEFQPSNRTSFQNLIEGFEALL
How it was run: as §1

Structure (SMILES)	Ki [1]	Ki [3]	EC50 [2]
CN1CCN(C(=O)Cn2cc(Nc3nc4c(N5CC(CC#N)(Cc6cccc(Cl)c6)C5)cccn4n3)cn2)CC1 [Example 102, 2-[3-[(3-chlorophenyl)methyl]-1-[2-[[1-[2-(4-methylpiperazin-1-yl)-2-oxo-ethyl]pyrazol-4-yl]amino]-[1,2,4]triazolo[1,5-a]pyridin-8-yl]azetidin-3-yl]acetonitrile]	5.1 nM	1.2 nM	290 nM
Cn1cc(Nc2nc3c(N4CC(CC#N)(n5cc(C6CC6)cn5)C4)cccn3n2)cn1 [Example 142, 2-[3-(4-cyclopropylpyrazol-1-yl)-1-[2-[(l-methylpyrazol-4-yl)amino]-[1,2,4]triazolo[1,5-a]pyridin-8-yl]azetidin-3-yl]acetonitrile]	0.5 nM	0.4 nM	14 nM
CCc1cnn(C2(CC#N)CN(c3cccn4nc(Nc5ccc(C(=O)N6CCN(C7COC7)CC6)cc5)nc34)C2)c1 [Example 44, 2-[3-(4-ethylpyrazol-1-yl)-1-[2-[4-[4-(oxetan-3-yl)piperazine-1-carbonyl]anilino]-[1,2,4]triazolo[1,5-a]pyridin-8-yl]azetidin-3-yl]acetonitrile]	29.5 nM	2.2 nM	648 nM
CCc1cnn(C2(CC#N)CN(c3cccn4nc(Nc5cnn(CCO)c5)nc34)C2)c1 [Example 133, 2-[3-(4-ethylpyrazol-1-yl)-1-[2-[[1-(2-hydroxyethyl)pyrazol-4-yl]amino]-[1,2,4]triazolo[1,5-a]pyridin-8-yl]azetidin-3-yl]acetonitrile]	0.3 nM	0.3 nM	12 nM
CCc1cnn(C2(CC#N)CN(c3cccn4nc(Nc5cnn(CC(=O)N6CCN(C7CCOCC7)CC6)c5)nc34)C2)c1 [Example 31, 2-[3-(4-ethylpyrazol-1-yl)-1-[2-[[1-[2-oxo-2-(4-tetrahydropyran-4-ylpiperazin-1-yl)ethyl]pyrazol-4-yl]amino]-[1,2,4]triazolo[1,5-a]pyridin-8-yl]azetidin-3-yl]acetonitrile]	1.1 nM	0.4 nM	19 nM
CCc1cnn(C2(CC#N)CN(c3cccn4nc(Nc5cnn(CC(=O)N6CCN(C7COC7)CC6)c5)nc34)C2)c1 [Example 32, 2-[3-(4-ethylpyrazol-1-yl)-1-[2-[[1-[2-[4-(oxetan-3-yl)piperazin-1-yl]-2-oxo-ethyl]pyrazol-4-yl]amino]-[1,2,4]triazolo[1,5-a]pyridin-8-yl]azetidin-3-yl]acetonitrile;formic acid]	0.2 nM	0.4 nM	19 nM

Further lines, with some results ahead:

Ki [1]	Ki [3]	Structure (SMILES)	EC50 [2]
4.5 nM	1.8 nM	CSc1ccc(C2(CC#N)CN(c3cccn4nc(Nc5cnn(CC(=O)N6CCN(C)CC6)c5)nc34)C2)cc1 [Example 14]	72 nM
1.7 nM	0.4 nM	CCc1cnn(C2(CC#N)CN(c3cccn4nc(Nc5ccc(C(=O)N6CCN(C)CC6)c(C)c5)nc34)C2)c1 [Example 92, 2-[3-(4-ethylpyrazol-1-yl)-1-[2-[3-methyl-4-(4-methylpiperazine-1-carbonyl)anilino]-[1,2,4]triazolo[1,5-a]pyridin-8-yl]azetidin-3-yl]acetonitrile]	19 nM
0.8 nM	0.3 nM	N#CCC1(n2cc(C(F)(F)F)cn2)CN(c2cccn3nc(Nc4cnn(CC(=O)N5CCC(N6CCOCC6)CC5)c4)nc23)C1 [Example 96, 2-[1-[2-[[1-[2-(4-morpholino-1-piperidyl)-2-oxo-ethyl]pyrazol-4-yl]amino]-[1,2,4]triazolo[1,5-a]pyridin-8-yl]-3-[4-(trifluoromethyl)pyrazol-1-yl]azetidin-3-yl]acetonitrile]	28 nM
0.2 nM	0.3 nM	CCc1cnn(C2(CC#N)CN(c3cccn4nc(Nc5ccc(C(=O)NCc6ccc(C)nc6)cc5)nc34)C2)c1 [Example 64, 4-[[8-[3-(cyanomethyl)-3-(4-ethylpyrazol-1-yl)azetidin-1-yl]-[1,2,4]triazolo[1,5-a]pyridin-2-yl]amino]-N-[(6-methyl-3-pyridyl)methyl]benzamide]	15 nM
0.6 nM	0.3 nM	N#CCC1(n2cc(CCF)cn2)CN(c2cccn3nc(Nc4cn[nH]c4)nc23)C1 [Example 149, 2-[3-[4-(2-fluoroethyl)pyrazol-1-yl]-1-[2-(1H-pyrazol-4-ylamino)-[1,2,4]triazolo[1,5-a]pyridin-8-yl]azetidin-3-yl]acetonitrile]	21 nM
